Assay [1] has as its system SH-SY5Y. The assay can be described thus: Neuroprotective activity against H2O2-induced oxidative stress in human SH-SY5Y cells assessed as cell viability at 10 uM preincubated for 2 hrs followed by H2O2 stimulation for 30 mins followed by further incubation for 24 hrs by MTT assay relative to control. The class given is functional. To be noted: for viability at 10 µM: read-out: Activity.

The subject of a further assay is RAW264.7. The assay is described as follows: Neuroprotective activity against LPS-induced oxidative stress in mouse RAW264.7 cells assessed as reduction in NO production at 10 uM preincubated for 30 mins followed by LPS stimulation for 20 hrs by Griess reagent based microplate reader assay relative to control. The class given is functional.
In assay [2] the test system is SH-SY5Y. The assay can be described thus: Neuroprotective activity against oxygen-glucose deprivation-induced cell damage in human SH-SY5Y cells assessed as increase in cell viability measured after 5.5 hrs of post OGD challenge by MTT assay. Format: functional, cell-based.
The subject of assay [3] is SH-SY5Y. The assay is described as follows: Neuroprotective activity against H2O2-induced oxidative stress in human SH-SY5Y cells assessed as cell viability at 1 mM preincubated for 2 hrs followed by H2O2 stimulation for 30 mins followed by further incubation for 24 hrs by MTT assay relative to control. Format: functional. The settings on record: read-out: Activity.

Active and inactive are the calls of the source. The calls are words filed in the database; no cut-off is given here.

In the case of `COc1cc(CN2CCN(C(=O)O[C@H]3CC[C@@]4(C)[C@H](CC[C@@H]5[C@@H]4CC[C@]4(C)[C@@H]6[C@H](C[C@@H]54)O[C@]4(CC[C@@H](C)CO4)[C@H]6C)C3)CC2)ccc1O`, in the assay with SH-SY5Y [1], the viability at 10 µM amounted to 10.3%.

For the molecule `C[C@@H]1CC[C@@]2(OC1)O[C@H]1C[C@H]3[C@@H]4CC[C@@H]5C[C@@H](OC(=O)N(C)C)CC[C@]5(C)[C@H]4CC[C@]3(C)[C@H]1[C@@H]2C`, in the assay on SH-SY5Y [1], the viability at 10 µM came to 6.3%.

As to `Cc1ccc(CNC(=O)O[C@H]2CC[C@@]3(C)[C@H](CC[C@@H]4[C@@H]3CC[C@]3(C)[C@@H]5[C@H](C[C@@H]43)O[C@]3(CC[C@@H](C)CO3)[C@H]5C)C2)cc1`, the inhibition at 10 µM with RAW264.7 came out at 6.8%. Further, the viability at 10 µM in the assay with SH-SY5Y [1] is 29.2%.

Consider `C[C@@H]1CC[C@@]2(OC1)O[C@H]1C[C@H]3[C@@H]4CC[C@@H]5C[C@@H](OC(=O)N6CCN(Cc7ccc(Cl)cc7)CC6)CC[C@]5(C)[C@H]4CC[C@]3(C)[C@H]1[C@@H]2C`, for which the result in the assay on SH-SY5Y [2] was Active. Moreover, the inhibition at 10 µM in the assay on RAW264.7 turned out to be 15.2%. Moreover, the viability at 10 µM in the assay with SH-SY5Y [1] was determined as 34.8%.

On to `C[C@@H]1CC[C@@]2(OC1)O[C@H]1C[C@H]3[C@@H]4CC[C@@H]5C[C@@H](OC(=O)NCc6ccccc6)CC[C@]5(C)[C@H]4CC[C@]3(C)[C@H]1[C@@H]2C`, for which the viability at 10 µM in the assay on SH-SY5Y [1] worked out at 5.8%.

`CC(C)CNC(=O)O[C@H]1CC[C@@]2(C)[C@H](CC[C@@H]3[C@@H]2CC[C@]2(C)[C@@H]4[C@H](C[C@@H]32)O[C@]2(CC[C@@H](C)CO2)[C@H]4C)C1`: the viability at 10 µM with SH-SY5Y [1] worked out at 9.2%.

With `C[C@@H]1CC[C@@]2(OC1)O[C@H]1C[C@H]3[C@@H]4CC[C@@H]5C[C@@H](OC(=O)N6CCN(C)CC6)CC[C@]5(C)[C@H]4CC[C@]3(C)[C@H]1[C@@H]2C`, in the assay with SH-SY5Y [1], the result was inactive.

For the molecule `C[C@@H]1CC[C@@]2(OC1)O[C@H]1C[C@H]3[C@@H]4CC[C@@H]5C[C@@H](OC(=O)N6CCN(CCO)CC6)CC[C@]5(C)[C@H]4CC[C@]3(C)[C@H]1[C@@H]2C`, the result with SH-SY5Y [1] was inactive.

Consider `C[C@@H]1CC[C@@]2(OC1)O[C@H]1C[C@H]3[C@@H]4CC[C@@H]5C[C@@H](OC(=O)N6CCN(Cc7ccc(C#N)cc7)CC6)CC[C@]5(C)[C@H]4CC[C@]3(C)[C@H]1[C@@H]2C`, for which the outcome with SH-SY5Y [2] was Active. Further, the inhibition at 10 µM in the assay with RAW264.7 amounted to 23.5%. Besides, the viability at 10 µM with SH-SY5Y [1] is 40.5%.

`C[C@@H]1CC[C@@]2(OC1)O[C@H]1C[C@H]3[C@@H]4CC[C@@H]5C[C@@H](OC(=O)N6CCN(Cc7ccccc7O)CC6)CC[C@]5(C)[C@H]4CC[C@]3(C)[C@H]1[C@@H]2C`: the inhibition at 10 µM in the assay with RAW264.7 was determined as 7.02%. Moreover, in the assay on SH-SY5Y [1], the viability at 10 µM worked out at 38.4%.

As for `C[C@@H]1CC[C@@]2(OC1)O[C@H]1C[C@H]3[C@@H]4CC[C@@H]5C[C@@H](OC(=O)N6CCN(Cc7ccccc7)CC6)CC[C@]5(C)[C@H]4CC[C@]3(C)[C@H]1[C@@H]2C`, the outcome in the assay on SH-SY5Y [2] was Active. In addition, the inhibition at 10 µM with RAW264.7 is 18.3%. Further, the viability at 10 µM with SH-SY5Y [1] was determined as 36.9%.

On to `CC(=O)N[C@@H](CS)C(=O)O` [ACETYLCYSTEINE], for which the viability at 1000 µM in the assay on SH-SY5Y [3] amounted to 37.1%.

On to `C[C@@H]1CC[C@@]2(OC1)O[C@H]1C[C@H]3[C@@H]4CC[C@@H]5C[C@@H](O)CC[C@]5(C)[C@H]4CC[C@]3(C)[C@H]1[C@@H]2C`, for which, in the assay with SH-SY5Y [1], the viability at 10 µM came out at 3.5%.

`C[C@@H]1CC[C@@]2(OC1)O[C@H]1C[C@H]3[C@@H]4CC[C@@H]5C[C@@H](OC(=O)NCc6ccc(Cl)cc6)CC[C@]5(C)[C@H]4CC[C@]3(C)[C@H]1[C@@H]2C`: the result in the assay with SH-SY5Y [2] was Active. In addition, the inhibition at 10 µM with RAW264.7 was 17.6%. Moreover, the viability at 10 µM in the assay on SH-SY5Y [1] was 45.5%.

As to `COc1ccc(CNC(=O)O[C@H]2CC[C@@]3(C)[C@H](CC[C@@H]4[C@@H]3CC[C@]3(C)[C@@H]5[C@H](C[C@@H]43)O[C@]3(CC[C@@H](C)CO3)[C@H]5C)C2)cc1`, in the assay with RAW264.7, the inhibition at 10 µM stood at 9.2%. Also, in the assay on SH-SY5Y [1], the viability at 10 µM is 17.9%.

On to `COc1ccc(CN2CCN(C(=O)O[C@H]3CC[C@@]4(C)[C@H](CC[C@@H]5[C@@H]4CC[C@]4(C)[C@@H]6[C@H](C[C@@H]54)O[C@]4(CC[C@@H](C)CO4)[C@H]6C)C3)CC2)cc1`, for which the viability at 10 µM in the assay with SH-SY5Y [1] stood at 4.8%.

Values taken from ChEMBL document CHEMBL4351030, “Synthesis and biological evaluation of 3-carbamate smilagenin derivatives as potential neuroprotective agents” (2019).
